Assay results reported in patent publication US9458220B2 (priority 2010, dated 2016).

Tests used:
[1] = Dipeptide half life on IGF1 dipeptide extended (p-NH2-F)A19 analogs in PBS; format: physicochemical; conditions: Table 12; cleavage of (pNH2-Phe) amide linked dipeptide AibPro from the parent peptide
Method: Accordingly, the IGF1A chain alone was determined to be a good model for the study of pro-drug half life on IGF1 B:A (Y^B16L^B17) analog peptides. […] For simplicity, prodrug half lives were determined using only the IGF1 A chain in the absence of the B chain. The half lives of each propeptide was determined as described in Example 5.
The IGF^B16B17 analog peptide prodrugs were incubated in PBS, pH 7.4 at 37° C. and at predetermined time intervals an aliquot was taken and further degradation was quenched with 0.1% TFA and the aliquot was subjected to analytical HPLC analysis. Peaks a and b, representing the prodrug and active forms of the IGF^B16B17 analog peptide were identified with LC-MS and quantified by integration of peak area an HPLC. FIGS. 9A-9C show the output of an HPLC analysis of the degradation of the IGF^B16B17 analog peptide prodrug: IGF1A(Ala)^6,7,11,20(Aib-Pro-pNH—F)^19. Aliquots were taken at 20 minutes (FIG. 9A), 81 minutes (FIG. 9B) and 120 minutes (FIG. 9C) after beginning the incubation of the prodrug in PBS.

human IGF-1 receptor = target: T1, human IGF-1 receptor (Homo sapiens, UniProt P08069); test: IGF-1 receptor competition binding assay (scintillation proximity); conditions: Table 9
T1 construct: expressed in transfected cells; plasma membrane fragments

human insulin receptor = target: T2, human insulin receptor (Homo sapiens, UniProt P06213); test: Insulin receptor competition binding assay (scintillation proximity); conditions: Table 9
T2 construct: expressed in transfected cells; plasma membrane fragments
T2 sequence (P06213 28-758 limits assumed): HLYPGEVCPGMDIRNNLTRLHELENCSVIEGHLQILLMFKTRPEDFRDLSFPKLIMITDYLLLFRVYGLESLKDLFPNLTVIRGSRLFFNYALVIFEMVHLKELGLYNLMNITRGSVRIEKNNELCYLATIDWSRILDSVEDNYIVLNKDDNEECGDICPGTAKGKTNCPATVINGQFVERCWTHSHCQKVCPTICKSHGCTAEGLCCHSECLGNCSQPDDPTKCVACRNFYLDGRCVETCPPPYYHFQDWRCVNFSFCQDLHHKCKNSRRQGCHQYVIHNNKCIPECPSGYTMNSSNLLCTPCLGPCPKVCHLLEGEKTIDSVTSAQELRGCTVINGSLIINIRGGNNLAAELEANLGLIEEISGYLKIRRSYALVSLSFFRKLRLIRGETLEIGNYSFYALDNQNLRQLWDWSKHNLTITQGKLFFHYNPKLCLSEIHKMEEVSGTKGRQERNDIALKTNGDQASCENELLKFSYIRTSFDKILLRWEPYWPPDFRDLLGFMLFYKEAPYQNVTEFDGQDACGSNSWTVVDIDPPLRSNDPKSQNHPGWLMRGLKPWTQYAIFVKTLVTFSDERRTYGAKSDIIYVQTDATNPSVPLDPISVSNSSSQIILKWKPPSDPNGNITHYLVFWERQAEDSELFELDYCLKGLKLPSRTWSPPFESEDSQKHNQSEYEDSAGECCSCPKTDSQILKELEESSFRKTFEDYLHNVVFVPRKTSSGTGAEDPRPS
T2 sequence (P06213 763-1382 partner limits assumed): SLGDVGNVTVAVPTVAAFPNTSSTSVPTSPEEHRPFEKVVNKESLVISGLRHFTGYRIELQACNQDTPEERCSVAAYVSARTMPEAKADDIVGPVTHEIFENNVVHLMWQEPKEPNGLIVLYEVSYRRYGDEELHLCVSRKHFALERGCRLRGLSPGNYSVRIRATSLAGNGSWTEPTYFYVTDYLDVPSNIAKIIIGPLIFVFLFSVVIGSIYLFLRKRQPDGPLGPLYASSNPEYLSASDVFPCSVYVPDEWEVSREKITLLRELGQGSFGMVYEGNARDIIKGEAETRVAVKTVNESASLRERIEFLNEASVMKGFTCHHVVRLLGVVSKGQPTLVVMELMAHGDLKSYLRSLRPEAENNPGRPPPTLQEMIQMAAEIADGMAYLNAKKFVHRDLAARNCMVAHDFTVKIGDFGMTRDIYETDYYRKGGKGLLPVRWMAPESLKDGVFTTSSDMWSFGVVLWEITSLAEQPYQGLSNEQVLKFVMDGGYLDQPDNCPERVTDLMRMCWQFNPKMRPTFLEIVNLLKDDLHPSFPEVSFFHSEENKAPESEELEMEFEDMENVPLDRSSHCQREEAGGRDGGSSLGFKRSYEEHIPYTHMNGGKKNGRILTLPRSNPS

T1 sequence (P08069 31-736 limits assumed): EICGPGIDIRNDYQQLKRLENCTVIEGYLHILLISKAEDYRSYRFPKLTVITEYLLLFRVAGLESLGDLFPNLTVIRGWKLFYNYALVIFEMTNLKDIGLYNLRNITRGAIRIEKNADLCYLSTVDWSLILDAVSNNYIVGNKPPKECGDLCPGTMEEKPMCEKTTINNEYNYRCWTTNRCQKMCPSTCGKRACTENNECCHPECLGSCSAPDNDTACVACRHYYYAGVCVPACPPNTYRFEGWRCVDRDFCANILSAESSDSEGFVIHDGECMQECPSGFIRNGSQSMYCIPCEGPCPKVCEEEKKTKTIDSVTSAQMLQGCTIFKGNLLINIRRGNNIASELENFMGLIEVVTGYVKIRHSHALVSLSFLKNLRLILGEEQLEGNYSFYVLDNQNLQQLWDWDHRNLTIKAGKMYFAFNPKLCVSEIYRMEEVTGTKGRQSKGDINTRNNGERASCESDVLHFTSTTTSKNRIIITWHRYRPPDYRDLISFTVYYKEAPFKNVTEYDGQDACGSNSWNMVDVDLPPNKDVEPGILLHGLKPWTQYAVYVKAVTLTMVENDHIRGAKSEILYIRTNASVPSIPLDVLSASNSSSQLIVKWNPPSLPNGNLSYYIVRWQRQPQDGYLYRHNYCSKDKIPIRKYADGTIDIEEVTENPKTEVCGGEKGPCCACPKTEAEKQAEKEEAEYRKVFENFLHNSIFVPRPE
T1 sequence (P08069 741-1367 partner limits assumed): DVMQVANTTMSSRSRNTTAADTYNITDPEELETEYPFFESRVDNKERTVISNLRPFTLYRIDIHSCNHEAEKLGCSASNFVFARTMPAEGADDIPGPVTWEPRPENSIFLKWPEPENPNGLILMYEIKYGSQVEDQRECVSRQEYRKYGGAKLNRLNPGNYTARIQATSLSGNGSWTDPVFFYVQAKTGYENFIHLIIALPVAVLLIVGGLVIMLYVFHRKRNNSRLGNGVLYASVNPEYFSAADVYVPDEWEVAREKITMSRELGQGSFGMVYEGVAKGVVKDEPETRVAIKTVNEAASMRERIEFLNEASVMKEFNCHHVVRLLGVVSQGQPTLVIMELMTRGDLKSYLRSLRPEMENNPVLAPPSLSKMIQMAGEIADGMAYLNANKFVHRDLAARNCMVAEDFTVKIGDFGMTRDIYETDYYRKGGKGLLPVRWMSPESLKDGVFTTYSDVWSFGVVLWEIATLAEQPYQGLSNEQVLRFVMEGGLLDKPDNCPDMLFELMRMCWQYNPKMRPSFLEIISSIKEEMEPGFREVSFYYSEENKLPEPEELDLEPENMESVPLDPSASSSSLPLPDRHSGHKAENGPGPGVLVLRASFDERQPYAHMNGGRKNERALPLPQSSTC

Compound: CC[C@H](C)[C@H](NC(=O)CN)C(=O)N[C@H](C(=O)N[C@@H](CC(=O)O)C(=O)N[C@@H](CCC(=O)O)C(=O)N[C@@H](CSCNC(C)=O)C(=O)N[C@@H](CSSC[C@H](NC(=O)[C@H](CC(C)C)NC(=O)[C@@H](NC(=O)[C@H](CCC(=O)O)NC(=O)[C@@H]1CCCN1C(=O)CN)[C@@H](C)O)C(=O)NCC(=O)N[C@@H](C)C(=O)N[C@@H](CCC(=O)O)C(=O)N[C@@H](CC(C)C)C(=O)N[C@H](C(=O)N[C@@H](CC(=O)O)C(=O)N[C@@H](C)C(=O)N[C@@H](CC(C)C)C(=O)N[C@@H](Cc1ccc(O)cc1)C(=O)N[C@@H](CC(C)C)C(=O)N[C@H](C(=O)N[C@@H](CSCNC(C)=O)C(=O)NCC(=O)N[C@@H](CC(=O)O)C(=O)N[C@@H](CCCNC(=N)N)C(=O)NCC(=O)N[C@@H](Cc1ccccc1)C(=O)N[C@@H](Cc1ccc(O)cc1)C(=O)N[C@@H](Cc1ccccc1)C(=O)N[C@@H](CC(N)=O)C(=O)N[C@@H](CCCCN)C(=O)N1CCC[C@H]1C(=O)N[C@H](C(N)=O)[C@@H](C)O)C(C)C)C(C)C)C(=O)N[C@@H](Cc1ccccc1)C(=O)N[C@@H](CCCNC(=N)N)C(=O)N[C@@H](CO)C(=O)N[C@@H](CSCNC(C)=O)C(=O)N[C@@H](CC(=O)O)C(=O)N[C@@H](CC(C)C)C(=O)N[C@@H](CCCNC(=N)N)C(=O)N[C@@H](CCCNC(=N)N)C(=O)N[C@@H](CC(C)C)C(=O)N[C@@H](CCC(=O)O)C(=O)N[C@@H](CCSC)C(=O)N[C@@H](Cc1ccc(NC(=O)[C@@H]2CCCN2C(=O)C(C)(C)N)cc1)C(=O)N[C@@H](CSCNC(C)=O)C(=O)N[C@@H](C)C(=O)O)C(C)C
- Half Life [1]: 1.8 h

Compound: CC[C@H](C)[C@H](NC(=O)CN)C(=O)N[C@H](C(=O)N[C@@H](CC(=O)O)C(=O)N[C@@H](CCC(=O)O)C(=O)N[C@H]1CSSC[C@@H]2NC(=O)[C@H](CO)NC(=O)[C@H](CCCNC(=N)N)NC(=O)[C@H](Cc3ccccc3)NC(=O)[C@H](CSSC[C@H](NC(=O)[C@H](CC(C)C)NC(=O)[C@@H](NC(=O)[C@H](CCC(=O)O)NC(=O)[C@@H]3CCCN3C(=O)CN)[C@@H](C)O)C(=O)NCC(=O)N[C@@H](C)C(=O)N[C@@H](CCC(=O)O)C(=O)N[C@@H](CC(C)C)C(=O)N[C@@H](C(C)C)C(=O)N[C@@H](CC(=O)O)C(=O)N[C@@H](C)C(=O)N[C@@H](CC(C)C)C(=O)N[C@@H](Cc3ccc(O)cc3)C(=O)N[C@@H](CC(C)C)C(=O)N[C@@H](C(C)C)C(=O)N[C@H](C(=O)NCC(=O)N[C@@H](CC(=O)O)C(=O)N[C@@H](CCCNC(=N)N)C(=O)NCC(=O)N[C@@H](Cc3ccccc3)C(=O)N[C@@H](Cc3ccc(O)cc3)C(=O)N[C@@H](Cc3ccccc3)C(=O)N[C@@H](CC(N)=O)C(=O)N[C@@H](CCCCN)C(=O)N3CCC[C@H]3C(=O)N[C@H](C(N)=O)[C@@H](C)O)CSSC[C@@H](C(=O)N[C@@H](C)C(=O)O)NC(=O)[C@H](Cc3ccc(NC(=O)[C@@H]4CCCN4C(=O)C(C)(C)N)cc3)NC(=O)[C@H](CCSC)NC(=O)[C@H](CCC(=O)O)NC(=O)[C@H](CC(C)C)NC(=O)[C@H](CCCNC(=N)N)NC(=O)[C@H](CCCNC(=N)N)NC(=O)[C@H](CC(C)C)NC(=O)[C@H](CC(=O)O)NC2=O)NC1=O)C(C)C [IGF1 B:A(pNH2-Phe)^A19]
- Half Life [1]: 1.6 h

Compound: CC[C@H](C)[C@H](NC(=O)CN)C(=O)N[C@H](C(=O)N[C@@H](CC(=O)O)C(=O)N[C@@H](CCC(=O)O)C(=O)N[C@H]1CSSC[C@@H]2NC(=O)[C@H](CO)NC(=O)[C@H](CCCNC(=N)N)NC(=O)[C@H](Cc3ccccc3)NC(=O)[C@H](CSSC[C@H](NC(=O)[C@H](CC(C)C)NC(=O)[C@H](Cc3c[nH]cn3)NC(=O)[C@H](CCC(N)=O)NC(=O)[C@H](CC(N)=O)NC(=O)[C@@H](NC(=O)[C@@H](N)Cc3ccccc3)C(C)C)C(=O)NCC(=O)N[C@@H](C)C(=O)N[C@@H](CCC(=O)O)C(=O)N[C@@H](CC(C)C)C(=O)N[C@@H](C(C)C)C(=O)N[C@@H](CC(=O)O)C(=O)N[C@@H](C)C(=O)N[C@@H](CC(C)C)C(=O)N[C@@H](Cc3ccc(O)cc3)C(=O)N[C@@H](CC(C)C)C(=O)N[C@@H](C(C)C)C(=O)N[C@H](C(=O)NCC(=O)N[C@@H](CC(=O)O)C(=O)N[C@@H](CCCNC(=N)N)C(=O)NCC(=O)N[C@@H](Cc3ccccc3)C(=O)N[C@@H](Cc3ccc(O)cc3)C(=O)N[C@@H](Cc3ccccc3)C(=O)N[C@@H](CC(N)=O)C(=O)N[C@@H](CCCCN)C(=O)N3CCC[C@H]3C(=O)N[C@H](C(N)=O)[C@@H](C)O)CSSC[C@@H](C(=O)N[C@@H](C)C(N)=O)NC(=O)[C@H](Cc3ccc(O)cc3)NC(=O)[C@H](CCSC)NC(=O)[C@H](CCC(=O)O)NC(=O)[C@H](CC(C)C)NC(=O)[C@H](CCCNC(=N)N)NC(=O)[C@H](CCCNC(=N)N)NC(=O)[C@H](CC(C)C)NC(=O)[C@H](CC(=O)O)NC2=O)NC1=O)C(C)C [IGF-1 A: In B (1-5)-IGF-1 B (YL) (6-30)]
- IGF-1 Receptor % IGF-1 (in test) (human IGF-1 receptor): 3.6%
- Insulin Receptor % insulin (in test) (human insulin receptor): 62.4%
- Insulin Receptor % native insulin activity (0.6 nM) (human insulin receptor): 193.5%
